Laboratory results taken from patent US20040038369A1, “Airway-specific trypsin-like enzymes and method of using the same” (priority 2000, published 2004).
Structures can show the parent of a compound that is named as a salt.

Experiments:
[1] = system: normal human airway epithelial cells; experiment: Calcium influx in normal human airway epithelial cells; format: cell-based; conditions: AST 2 units/mL; trypsin 10 to 100 units/mL; SFLLRNamide 100 μM
Description: The Ca^2+ influx due to the AST was examined with confluent normal epithelial cells adhered to three 10 cm dishes (purchased from BioWhittaker Corp.). The cells were peeled with a 10 mM EDTA/HEPES-Tyrode buffer solution for 10 minutes, recovered by a centrifugal treatment at 800 rpm at room temperature for 5 minutes, and then resuspended in 5 mL of HEPES-Tyrode buffer solution-Ca^2+ (−) pH 7.4. The recovered cells (about 1.2×10^6 cells) were suspended in 5 mL of HEPES-Tyrode buffer solution (1 μg/mL, containing Fura2-AM) to load the Fura2-AM to the cells at 37° C. for one hour. The cells were recovered by a centrifugal treatment at 800 rpm at room temperature for 5 minutes, twice washed with HEPES-Tyrode buffer solution-Ca^2+ (−) pH 7.4, and then resuspended in […] of HEPES-Tyrode buffer solution-Ca^2+ (−) pH 7.4. The cell suspension was mixed with 5 μL of 1M CaCl2 to give a final concentration of 1 mM CaCl2, and then incubated in a shaded state at room temperature for 5 minutes. The prepared Fura2-AM-loaded infected cells were dispensed into a 96 well plate in a volume of 100 μL/well, further subjected to the dispensation of HEPES-Tyrode buffer solution-Ca^2+ (+) pH 7.4 in a volume of 80 μL/well, and then assayed with Fluorescence Drug Screening System (Hamamatsu Photonics Co.). […]

BEAS-2B = experiment: Calcium influx in airway epithelial cell strain BEAS-2B; format: cell-based; conditions: AST 2 units/mL; trypsin 10 to 100 units/mL; SFLLRNamide 100 μM
Description: The Ca^2+ influx due to the AST was examined with respect to an airway epithelial cell strain BEAS-2B. The confluent cells adhered to six 10 cm dishes were used. The cells were peeled with a 10 mM EDTA/HEPES-Tyrode buffer solution for 10 minutes, recovered by a centrifugal treatment at 1,500 rpm at room temperature for 5 minutes, and then resuspended in 10 mL of HEPES-Tyrode buffer solution-Ca^2+ (−) pH 7.4. The recovered cells (about 1.1×10^7 cells) were suspended in 11 mL of HEPES-Tyrode buffer solution (1 μg/mL, containing Fura2-AM) to load the Fura2-AM at 37° C. for 30 minutes. The cells were recovered by a centrifugal treatment at 1,500 rpm at room temperature for 5 minutes, twice washed with HEPES-Tyrode buffer solution-Ca^2+ (−) pH 7.4, and then resuspended in 11 mL of HEPES-Tyrode buffer solution-Ca^2+ (−) pH 7.4. The cell suspension was mixed with […] of 1M CaCl2 to give a final concentration of 1 mM CaCl2, and then incubated in a shaded state at room temperature for 5 minutes. The prepared Fura2-AM-loaded infected cells were dispensed into a 96 well plate in a volume of 100 μL/well, further subjected to the dispensation of HEPES-Tyrode buffer solution-Ca^2+ (+) pH 7.4 in a volume of 80 μL/well, and then assayed with Fluorescence Drug Screening System (Hamamatsu Photonics Co.). […]

PAR-2 = biological target: T1, PAR-2 (Homo sapiens, UniProt P55085); experiment: Calcium influx in PAR-2-expressing insect cells; format: cell-based; conditions: AST 2 units/mL; trypsin, thrombin 0.1 to 10 units/mL; SFLLRNamide, SLIGRL 10 to 100 μM
T1 construct: expressed in transfected cells; host or cells: Sf9 insect cells infected with recombinant baculovirus VL-PAR (pVL1393)
T1 sequence (P55085 26-397): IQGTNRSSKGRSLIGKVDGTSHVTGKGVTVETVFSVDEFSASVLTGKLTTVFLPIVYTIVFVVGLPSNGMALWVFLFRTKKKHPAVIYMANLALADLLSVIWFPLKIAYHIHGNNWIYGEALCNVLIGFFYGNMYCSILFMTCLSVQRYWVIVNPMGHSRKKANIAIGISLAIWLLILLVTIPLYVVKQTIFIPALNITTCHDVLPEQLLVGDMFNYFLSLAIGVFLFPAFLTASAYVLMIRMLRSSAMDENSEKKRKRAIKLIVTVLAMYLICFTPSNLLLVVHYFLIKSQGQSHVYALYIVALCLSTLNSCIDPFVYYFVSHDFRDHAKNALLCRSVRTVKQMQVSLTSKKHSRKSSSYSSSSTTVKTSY
Description: The above-obtained recombinant baculovirus VL-PAR for expressing the PAR was used to infect 1.0×10^7 Sf9 cells sowed on a 75 cm^2 flask at an MOI=2, and was then left and stationally cultured at 27° C. for 40 hours. After the culture, the infected cells were recovered and then subjected to a calcium influx experiment to-confirm the function of the PAR.
The recovered infected cells (about 5×10^6 cells) were once washed with HEPES-Tyrode buffer solution-Ca^2+ (−) pH 7.4, and then suspended in 5 mL of HEPES-Tyrode buffer solution (containing Fura2-AM, 1 μg/mL) to load the Fura2-AM on the cells at 27° C. for 30 minutes. The suspension was centrifuged at 800 rpm at room temperature for 5 minutes to recover the cells. The cells were twice washed with HEPES-Tyrode buffer solution-Ca^2+ (−) pH 7.4 and then resuspended in 5 mL of HEPES-Tyrode buffer solution-Ca^2+ (−) pH 7.4. The cell suspension was mixed with 5 μL of 1M CaCl2 to give a final concentration of 1 mM CaCl2, and then incubated in a shaded state at room temperature for 5 minutes. The prepared Fura2-AM-loaded infected cells were dispensed into a 96 well plate in a volume of 100 μL/well, further subjected to the dispensation of HEPES-Tyrode buffer solution-C^2+ (+) pH 7.4 in a volume of 80 μL/well, and then assayed with a Fluorescence Drug Screening System (made by Hamamatsu Photonics Co.). Namely, [intensity of 500 nm fluorescent light due to 340 nm exciting light]/[intensity of 500 nm fluorescent light due to 380 nm exciting light] (reflecting the concentration of calcium in the cells) was assayed.

recombinant AST = biological target: T2, recombinant AST (Homo sapiens, UniProt O60235); experiment: AST-inhibiting activity of compound; format: biochemical; conditions: substrate Boc-Phe-Ser-Arg-MCA, 24° C., 6 minutes
T2 construct: 232 amino acids from Ile at the 187th position to Ile at the 418th position; made in house; host or cells: insect cells (Tn-5), recombinant baculovirus
T2 sequence (O60235 187-418): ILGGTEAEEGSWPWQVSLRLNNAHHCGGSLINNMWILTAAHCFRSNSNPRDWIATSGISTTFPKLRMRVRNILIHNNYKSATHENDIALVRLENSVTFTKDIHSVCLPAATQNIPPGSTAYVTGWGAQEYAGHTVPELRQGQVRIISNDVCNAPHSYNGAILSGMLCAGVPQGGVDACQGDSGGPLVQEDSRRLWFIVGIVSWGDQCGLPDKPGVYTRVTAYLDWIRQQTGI
T2 sequence (O60235 162-186 partner limits assumed): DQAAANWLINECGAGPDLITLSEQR
Description: 0.05 mL of a 50 mM Tris-HCl buffer solution (pH 8.6) containing 2 ng/mL of the recombinant AST and 0.01% of Tween 20 was mixed with 2 μL of a DMSO solution containing nafamostat mesylate or gabexate mesylate as an evaluation target compound in various concentrations, and with 0.05 mL of a 50 mM Tris-HCl buffer solution (pH 8.6) containing 30 μM of a trypsin synthesis substrate: Boc-Phe-Ser-Arg-MCA, and incubated at 24° C. for 6 minutes. The quantities of the produced AMC were assayed by a fluorometry (fluorescent light: 460 nm, exciting light: 380 nm) with the passage of time, and the enzymatic activity-inhibiting ability of the compound was evaluated.

## SFLLRNamide [reference compound]
[1]
  Ca2+ influx: observed
BEAS-2B
  Ca2+ influx: observed
PAR-2
  Ca2+ influx: observed

## N=C(N)c1ccc2cc(OC(=O)c3ccc(N=C(N)N)cc3)ccc2c1 [Nafamostat mesylate, nafamostat mesylate]
Recombinant AST
  IC50: 0.23 µM

## gabexate mesylate
Recombinant AST
  IC50: 0.14 µM
